{"source": "patent US20200222531A1", "about": "“METHODS OF POPULATING PRECIPITATED PARTICLES OF A MODIFIED OR SYNTHESIZED SUBSTANCE IN A TISSUE” (priority 2010, published 2020)", "assay": "Solubility of urushiol in 95% ethanol and in water", "assay_type": "physicochemical", "text": "The poison ivy allergen, urushiol, is soluble in 95% ethanol but insoluble in water. Intramuscular injection of urushiol in small volumes of 95% ethanol results in precipitation of large numbers of small insoluble particles as the ethanol is rapidly diluted by interstitial or tissue fluid, resulting in a […] enhancement of tolerogenesis per mg administered urushiol. As the most practical way to make an Ara h2 vaccine with the solubility properties needed to exploit the benefit of this delivery system may be a derivative of a process already known to enhance tolerogenesis, the inventors have the opportunity to see if the synergistic application of two methods of tolerogenesis enhancement yields a sufficiently high ratio of tolerogenicity to allergenicity to constitute a predictably safe and effective treatment for peanut allergy.", "data": [{"substance": "urushiol", "values": [{"measurement": "solubility in 95% ethanol", "setting": "95% ethanol", "value": "soluble"}, {"measurement": "solubility in water", "setting": "water", "value": "insoluble"}]}]}
